Data from paper PMC4176484, “Comparative study of four immortalized human brain capillary endothelial cell lines, hCMEC/D3, hBMEC, TY10, and BB19, and optimization of culture conditions, for an in vitro blood–brain barrier model for drug permeability studies” (Fluids and Barriers of the CNS, 2013).

Experiments:
hBMEC mono-cultures = test: Maximal TEER of hBMEC mono-cultures under different culture conditions, CellZscope; details: collagen type I coating
Procedure: For the screening of 24-well tissue culture inserts from different providers (Corning®, Greiner Bio-One®, BD Falcon®, Millipore®, Nunc®, and Brand®), each endothelial cell line (hCMEC/D3 (cultured with growth medium 20% FBS), hBMEC, TY10, and BB19) was seeded separately on the apical side of the filter membrane at a density varying between 1.5 × 10^4 and 17 × 10^4 cells/cm^2. Prior to seeding, the membranes were coated with rat-tail collagen type I. The tissue culture inserts were placed into a 24-well cell module of a CellZscope system (NanoAnalytics, Münster, Germany) [30] which was placed inside an incubator (37°C and 5% CO2). For in vitro models with TY10 cells, further experiments were performed for which the CellZscope system was first placed at 33°C (5% CO2) for 2 days and subsequently transferred to 37°C (5% CO2). The medium was refreshed every 2–4 days. TEER values were recorded in real-time every hour. TEER values for cell layers, expressed in Ωcm^2, were obtained by subtracting the TEER of a coated control insert without cells from a coated insert with cells. After placing the CellZscope system into the incubator, the cell module needs at least 6 h to reach 37°C. Since TEER values are highly temperature sensitive [36], recorded TEER values in this time period were not considered to be valid and are not reported. For each in vitro experiment, 2 or 3 replicates were measured. Results are expressed as means ± S.E.M. In addition to TEER values, the CellZscope system monitors the cell layer capacitance (CCL) which reflects the membrane surface area. CCL values in the range of 0.5-5.0 μF/cm^2 indicate cell confluency and validate TEER values [37, 38]. All reported TEER values in the result section belong to a CCL within this range, if not reported otherwise.

[1] = Paracellular permeability (Papp) of marker compounds through hCMEC/D3 mono-cultures on 24-well inserts; assay type: in vitro ADME; details: human, Greiner Bio-one transparent PET 3.0 μm inserts, mean ± S.E.M.
Procedure: (§1) To further assess tight junction (TJ) integrity of endothelial cell layers, paracellular permeabilities of Na-F (MW 376.27) and LY (MW 550.39) were measured. These two fluorescent, non-P-glycoprotein (P-gp) substrate molecules have low BBB penetration and are widely used as barrier integrity markers for in vitro models. To obtain comparative data, hCMEC/D3 cells, hBMEC cells, and TY10 cells were seeded onto 24-well tissue culture inserts (Greiner Bio-one®, transparent polyethylene terephthalate (PET) membrane, 3.0 μm pore size, 0.6 × 10^6 pores/cm^2) and incubated at 37°C (5% CO2) (except TY10 cells) inside the CellZscope cell module (Figure 2). For TY10, the CellZscope system was first put at 33°C (5% CO2) for 2 days and was thereafter transferred to 37°C (5% CO2) for 2 days prior to the permeability assay (Figure 3D). Cell seeding density for hCMEC/D3 and hBMEC was 6.0 × 10^4 cells/cm^2, and for TY10 it was 3.0 × 10^4 cells/cm^2. For hBMEC, contact co-culture models with SVG-A cells (9.0 × 10^4 cells/cm^2) or HBPCT cells (6.0 × 10^4 cells/cm^2) on the basal side of the coated filter membranes were tested.
(§2) TEER and CCL values before and after the assays were monitored continuously for integrity control. All experiments for Na-F permeability were carried out at the time indicated with a black arrow in Figures 3A-D. For LY permeability assessment, TEER values were in the same range (graphs not shown). BB19 cells were not included in this permeability study since TEER values were extremely low.
(§3) For the permeability assay, tissue culture inserts were transferred into a 24-well plate containing 700 μL of pre-warmed (37°C) Ringer HEPES buffer (150 mM NaCl, 2.2 mM CaCl2, 0.2 mM MgCl2, 5.2 mM KCl, 2.8 mM glucose, 5 mM HEPES, and 6 mM NaHCO3, pH 7.4) in each well (basolateral compartment). Medium in inserts (apical compartment) was then replaced with 300 μL of a pre-warmed (37°C) working solution containing Na-F or LY at 10 μg/mL in Ringer HEPES buffer. The 24-well plate was incubated at 37°C on an orbital shaker (ELMI DTS-2, Riga, Latvia) with moderate speed (100 rpm) and aliquots of 250 μL of both apical and basolateral compartments were collected after 1 h. All experiments were performed at least in triplicate. Quantification of fluorescence (Na-F: excitation 490 nm, emission 514 nm; LY: excitation 430 nm, emission 535 nm) was carried out using a Chameleon microplate reader (Hidex, Turku, Finland). The apparent permeability coefficient (Papp) for Na-F and LY was calculated in centimeters/second (cm/s) according to the equation: […]

[2] = Paracellular permeability (Papp) of marker compounds through TY10 mono-cultures on 24-well inserts; assay type: in vitro ADME; details: human, pH 7.4, TY10 monolayers (33°C 2 days, then 37°C 2 days), Greiner Bio-one transparent PET 3.0 μm inserts, mean ± S.E.M.
Procedure: (§4) To further assess tight junction (TJ) integrity of endothelial cell layers, paracellular permeabilities of Na-F (MW 376.27) and LY (MW 550.39) were measured. These two fluorescent, non-P-glycoprotein (P-gp) substrate molecules have low BBB penetration and are widely used as barrier integrity markers for in vitro models. To obtain comparative data, hCMEC/D3 cells, hBMEC cells, and TY10 cells were seeded onto 24-well tissue culture inserts (Greiner Bio-one®, transparent polyethylene terephthalate (PET) membrane, 3.0 μm pore size, 0.6 × 10^6 pores/cm^2) and incubated at 37°C (5% CO2) (except TY10 cells) inside the CellZscope cell module (Figure 2). […]
TEER and CCL values before and after the assays were monitored continuously for integrity control. […]
(§5) For the permeability assay, tissue culture inserts were transferred into a 24-well plate containing 700 μL of pre-warmed (37°C) Ringer HEPES buffer (150 mM NaCl, 2.2 mM CaCl2, 0.2 mM MgCl2, 5.2 mM KCl, 2.8 mM glucose, 5 mM HEPES, and 6 mM NaHCO3, pH 7.4) in each well (basolateral compartment). […] Quantification of fluorescence (Na-F: excitation 490 nm, emission 514 nm; LY: excitation 430 nm, emission 535 nm) was carried out using a Chameleon microplate reader (Hidex, Turku, Finland). The apparent permeability coefficient (Papp) for Na-F and LY was calculated in centimeters/second (cm/s) according to the equation: […]

[3] = Recovery (mass balance) in permeability assays through mono-cultures; assay type: in vitro ADME; details: human, pH 7.4; all mono-culture permeability experiments (hCMEC/D3, hBMEC, TY10)
Procedure: as §3, with “All experiments were performed at least in triplicate.” left out
(§6) Recovery (mass balance) of Na-F and LY was calculated with the following equation: […]
[43] where CAf and CBf are the final concentrations of the compound in the apical and basolateral compartment, respectively, CA0 is the initial concentration in the apical compartment, and VA and VB are the volumes in the apical and basolateral compartments, respectively. All results are expressed as means ± S.E.M.

[4] = Paracellular permeability (Papp) of marker compounds through hBMEC mono-cultures on 24-well inserts; assay type: in vitro ADME; details: human, mean ± S.E.M.
Procedure: as §1
as §2, with “BB19 cells were not included in this permeability study since TEER values were extremely low.” left out
as §5

[5] = Paracellular permeability (Papp) through hBMEC contact co-culture with HBPCT pericytes; assay type: in vitro ADME; details: human, mean ± S.E.M.
Procedure: as §4, §5

[6] = Paracellular permeability (Papp) through hBMEC contact co-culture with SVG-A astrocytes; assay type: in vitro ADME; details: human, mean ± S.E.M.
Procedure: as §4, §5

[7] = Recovery (mass balance) in permeability assays through hBMEC mono-cultures and contact co-cultures; assay type: in vitro ADME; details: human, pH 7.4; all hBMEC mono-culture / co-culture experiments with SVG-A or HBPCT
Procedure: as §4, §5, §6

[8] = pH 7.4, hCMEC/D3 cultivated with growth medium containing 20% FBS
[9] = pH 7.4, hCMEC/D3 grown with initial medium containing 5% FBS
[10] = pH 7.4, hBMEC mono-culture, growth medium 20% FBS, Greiner Bio-one transparent PET 3.0 μm inserts, 10 μg/mL apical, 1 h, 37°C

## C[C@@H]1C[C@H]2[C@@H]3CCC4=CC(=O)C=C[C@]4(C)[C@@]3(F)[C@@H](O)C[C@]2(C)[C@@]1(O)C(=O)CO [dexamethasone]
hBMEC mono-cultures; growth medium with dexamethasone 500 nM for 3 days (only apical), 9.0 × 10^4 cells/cm^2, at 4.15 d
  Mean max. TEER ± S.E.M.: 35.9 (± 0.338) Ωcm^2
hBMEC mono-cultures; growth medium with dexamethasone 1000 nM for 3 days (only apical), 9.0 × 10^4 cells/cm^2, at 4.15 d
  Mean max. TEER ± S.E.M.: 38.0 (± 1.26) Ωcm^2

## human epidermal growth factor [hEGF]
hBMEC mono-cultures; growth medium with additional hEGF 50 ng/mL for 3 days (only apical), 9.0 × 10^4 cells/cm^2, at 4.15 d
  Mean max. TEER ± S.E.M.: 36.4 (± 0.902) Ωcm^2
hBMEC mono-cultures; growth medium with additional hEGF 100 ng/mL for 3 days (only apical), 9.0 × 10^4 cells/cm^2, at 4.15 d
  Mean max. TEER ± S.E.M.: 40.0 (± 1.94) Ωcm^2

## C=CS(=O)(=O)c1cccc(N2C(=O)c3cc(S(=O)(=O)[O-])cc4c(N)c(S(=O)(=O)[O-])cc(c34)C2=O)c1.[Li+].[Li+] [LY, Lucifer Yellow VS dilithium salt]
[1]; [8]
  Papp at 1 h, 10 μg/mL: 11.7 ± 0.957 ×10⁻⁶ cm/s
[1]; [9]
  Papp at 1 h, 10 μg/mL: 10 ± 0.498 ×10⁻⁶ cm/s
[2]
  Papp at 1 h, 10 μg/mL: 9.68 ± 0.413 ×10⁻⁶ cm/s
[3]
  recovery at 1 h, 10 μg/mL: 66 to 79%
[4]; [10]
  Papp at 1 h, 10 μg/mL: 5.39 ± 0.364 ×10⁻⁶ cm/s

## O=C([O-])c1ccccc1-c1c2ccc(=O)cc-2oc2cc([O-])ccc12.[Na+].[Na+] [Na-F, sodium fluorescein]
[1]; [8]
  Papp at 1 h, 10 μg/mL: 13.4 ± 0.484 ×10⁻⁶ cm/s
[1]; [9]
  Papp at 1 h, 10 μg/mL: 12.5 ± 0.326 ×10⁻⁶ cm/s
[5]; pH 7.4, hBMEC co-cultured with HBPCT, medium deprived of growth factors, n = 3
  Papp at 1 h, 10 μg/mL: 7.22 ± 0.455 ×10⁻⁶ cm/s
[5]; pH 7.4, hBMEC contact co-culture with HBPCT, medium with growth factors
  Papp at 1 h, 10 μg/mL: 8.26 ± 0.893 ×10⁻⁶ cm/s
[6]; pH 7.4, hBMEC co-cultured with SVG-A, medium deprived of growth factors, n = 3
  Papp at 1 h, 10 μg/mL: 6.88 ± 0.516 ×10⁻⁶ cm/s
[6]; pH 7.4, hBMEC contact co-culture with SVG-A, medium with growth factors
  Papp at 1 h, 10 μg/mL: 7.43 ± 0.2 ×10⁻⁶ cm/s
[2]
  Papp at 1 h, 10 μg/mL: 12.4 ± 0.155 ×10⁻⁶ cm/s
[7]
  recovery at 1 h, 10 μg/mL: 98 to 102%
[3]
  recovery at 1 h, 10 μg/mL: 75 to 87%
[4]; [10]
  Papp at 1 h, 10 μg/mL: 5.08 ± 0.22 ×10⁻⁶ cm/s
[4]; pH 7.4, hBMEC monolayers cultured without growth factors, n = 3
  Papp at 1 h, 10 μg/mL: 5.11 ± 0.0487 ×10⁻⁶ cm/s

## C[C@]12CCC(=O)C=C1CC[C@@H]1[C@@H]2[C@@H](O)C[C@@]2(C)[C@H]1CC[C@]2(O)C(=O)CO [HC, hydrocortisone]
hBMEC mono-cultures; growth medium with additional HC 500 nM for 3 days (only apical), 4.5 × 10^4 cells/cm^2, at 3.19 d
  Mean max. TEER ± S.E.M.: 43.2 (± 4.27) Ωcm^2
hBMEC mono-cultures; growth medium with additional HC 1500 nM for 3 days (only apical), 4.5 × 10^4 cells/cm^2, at 3.19 d
  Mean max. TEER ± S.E.M.: 40.4 (± 0.646) Ωcm^2
